The test system of assay [1] is leukemia SR cells. Briefly: Cell cycle analysis, PI flow cytometry. On the set-up: increase of cells at pre-G1 phase vs control: concentration or dose not given beside the values. It counts as cell-based, human. Here is the method: The cells were washed twice using Ice-cold phosphate buffer saline (PBS). • Centrifugation was used to collect the cells, then the cells were fixed in 70% (v/v) ethanol, washed with PBS and re-suspended with 0.10 mg/mL RNase. • After that, cells were stained with […] propidium iodide (PI) and evaluated by flow cytometry using FACSCalibur (Becton Dickinson).
A general note: In flow cytometry, cells or beads pass a laser one at a time.

Assay [2] concerns leukemia SR cells. As to the kind of experiment: Apoptosis, Annexin-V-FITC/PI.

As for `CCn1cc(C(=O)NN=Cc2cccs2)c(=O)c2cc(F)c(N3CCNC(C)C3)c(F)c21` (stereo not shown) [Compound 3e, 1-Ethyl-6,8-difluoro-7-(3-methylpiperazin-1-yl)-4-oxo-N'-(thiophen-2-ylmethylene)-1,4-dihydroquinoline-3-carbohydrazide], the “increase of cells at pre-G1 phase vs control” value in the assay on leukemia SR cells [1] is reported as 10.19 folds. Besides, in the assay on leukemia SR cells [1] (3e at 1.90 µM, 24 h), the “%G0-G1” value is reported as 24.66%, the “%G2-M” value came out at 49.26%, the “%Pre-G1” value was found to be 26.19% and the “%S” value was 26.08%. Also, the “late apoptosis elevation vs control” value with leukemia SR cells [2] was 27.16 folds. Further, in the assay on leukemia SR cells [2] (3e at 1.90 µM, 24 h), the “Apoptosis %Early” value stood at 5.27%, the “Apoptosis %Late” value came to 18.20%, the “Apoptosis %Total” value is reported as 26.19% and the Necrosis was found to be 2.72%.
